Source: US20040106135A1, “Assay for PPAR ligand dependent gene modulation” (priority 2002, published 2004)

Columns and labels:
[1] = test system: ACHN cells; assay: Transcriptional profiling by DNA microarray, ACHN cells; format: cell-based, human
Description: Threshold cutoffs were set at fold change >1.4; p<0.01; and statistically significant in at least 2 experiments. The genes fatty acid CoA ligase 2 (FACL2), palmitoyl acyl-CoA oxidase 1 (ACOX1), and carnitine palmitoyl acyl-CoA transferase (CPT1A) are included for comparison based on published reports that they are PPARα responsive genes in HepG2 cells over expressing PPARα (Hsu et al., (2001) J. Biol. Chem. 276:27950-8; Lawrence et al., (2001) J. Biol. Chem. 276:31521-7).
Expression profiling: Expression profiling of RNA samples was performed essentially as described (Lockhart et al., (1996) Nat. Biotechnol. 14:1675-80) using the Affymetrix human U95Av2 array. Briefly, RNA was isolated from 100 mm cell culture dishes, DNased, and 15 μg used as a template for double stranded cDNA synthesis according to standard protocols (Invitrogen). […] The resultant cRNA products were purified using RNeasy columns (Qiagen), pooled, and quantitated spectrophotometrically. […]
Data Analysis: Affymetrix CEL files from GeneChip 4.0 (Affymetrix) were imported into Resolver 2.0 under an empirically derived Affymetrix error model (Rosetta Inpharmatics). […] Accordingly, the statistical significance (P-value) of a given expression data point takes into account the underlying error associated with the Affymetrix transcript abundance measurements as determined by this platform-specific error model. […]

[2] = test system: hamster PDK-4 mRNA in liver; assay: PDK-4 mRNA induction in liver of fat-fed hamsters; format: in vivo; details: single dose (GW9578 3 mg/kg, fenofibrate 100 mg/kg, gemfibrozil 500 mg/kg), 16 hour post-treatment
Experimental: FIG. 4A is a bar graph depicting the induction of PDK-4 mRNA in hamster liver by PPARα ligands. […] After 16 hours, the tissues were harvested, total RNA isolated and levels of hamster PDK-4 mRNA were detected by RT-PCR. The values are normalized to 18S rRNA levels. The mean and SEM of three individual animals are shown.
PDK-4 plays a critical role in regulating glucose metabolism by phosphorylating and inactivating the pyruvate dehydrogenase complex in response to increased fatty acid oxidation. […] To investigate the response of PDK-4 to fibrate treatment in vivo, in another aspect of the present invention the fat-fed hamster model was employed, which closely mimics the serum lipid profiles of humans than other rodent models (Sullivan et al., (1993) Lab. Anim. Sci. 43:575-578). […] These doses were previously shown to yield maximal effects on blood triglycerides in hamster. […] In hamster kidney, the basal levels of PDK-4 mRNA were approximately 10-fold higher than in the liver (FIG. 4B). […] Fibrates are effective treatments for lowering serum triglyceride levels. To verify that the doses used in this study were efficacious, blood triglyceride levels were monitored over a 48 hour time course.
Real-time PCR: Fluorescence-based real-time PCR was performed essentially as described (Abbaszade et al., (1999) J. Biol. Chem. 274:23443-23450). […] Taqman-based real-time PCR expression profiling was performed using 25 ng of each cDNA according to the manufacturer's (PE Biosystems) instructions with fluorescence being monitored in real-time with an ABI Prism 7700 (PE Biosystems). Relative expression levels were determined essentially as described (Gibson et al., (1996) Genome Res. 6:995-1001) using standard curves for each transcript. Relative abundance was then determined from these standard curves, subtracting mRNA levels obtained from negative control reactions performed in the absence of reverse transcriptase, and normalized to 18S rRNA levels. […]

## CCCCCCCN(CCc1ccc(SC(C)(C)C(=O)O)cc1)C(=O)Nc1ccc(F)cc1F [GW9578, ureido-thioisobutyric acid]
[1]
  ADRP induction in ACHN cells: significantly induced
[2]
  Induction of PDK-4 mRNA levels in the liver: 200 fold
